Measured values taken from patent US20240376097A1, “BCL-2 Inhibitor” (BeiGene Ltd., priority 2020, published 2024).

Tests used:
[1] = target: recombinant human Bcl-2-G101V protein (Homo sapiens (Human), UniProt P10415, G101V); experiment: Bcl-2-G101V TR-FRET Assay; type: binding; settings: Bcl-2 G101V mutant, TR-FRET; read-out: Biochemical assay (IC50, nM) Bcl-2 G101V
Procedure, shortened: (§1)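 Compounds were titrated at increasing concentrations against the Bcl-2-G101V–ligand interaction. TR-FRET signals were then read (ex 337 nm; em 490/520 nm). Percent inhibition was derived from the 490-to-520 nm ratio, and IC50 from a four-parameter logistic equation.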

[2] = test system: recombinant human Bcl-2-G101V protein; experiment: Bcl-2-G101V TR-FRET Assay; type: binding; settings: ratio of biochemical IC50 Bcl-2 G101V / Bcl-2 WT
Procedure, shortened: as §1

[3] = target: Recombinant human Bcl-2 protein (Homo sapiens (Human), UniProt P10415); experiment: Bcl-2 TR-FRET Assay; type: binding; settings: Bcl-2 wild type, TR-FRET; read-out: Biochemical assay (IC50, nM) Bcl-2 WT
Procedure, shortened: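 Displacement of FITC-labelled Bak peptide (0.5 nM) from 0.05 nM human Bcl-2, detected by TR-FRET with Tb-cryptate anti-6His antibody after 1 h at room temperature. Compounds, 10-point series, preincubated 0.5 h with protein in 20 mM potassium phosphate pH 7.5, 50 mM NaCl. IC50s fitted by four-parameter logistic.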

[4] = test system: RS4;11 (BCL-2 dependent acute lymphoblastic leukemia cell line); experiment: RS4;11 Cell Proliferation Assay; type: cell-based; settings: Homo sapiens, RS4-11, RS4;11 cells, read-out: Cellular proliferation assay (IC50, nM) RS4
Procedure, shortened: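 Viability measured via CellTiter-Glo luminescence after a 48 h, 37 °C exposure to compounds (10 points, highest 1 μM). Seeding was 50,000 RS4;11 cells per well in 10% FBS RPMI-1640; IC50 given as mean.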

[5] = test system: BCL-2 G101V knock-in cell line H96 (derive from RS4;11); experiment: Bcl 2-G101V Knock-In RS4;11 Cell Proliferation Assay; type: cell-based; settings: Homo sapiens, RS4;11 Bcl-2 G101V knock-in clone H96, 48 hrs, CellTiter-GLO, read-out: Cellular proliferation assay (IC50, nM) RS4
Procedure, shortened: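 CellTiter-Glo luminescence after 48 h, 37 °C compound treatment (10 concentrations, maximum 1 μM or 10 μM) gave mean IC50 values. Cells were 50,000 per well of H96, a BCL2-G101V knock-in single clone derived from RS4;11 by Cas9 editing.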

COc1ccc(CN2CCN(C3CC4(C3)CN(c3ccc(C(=O)NS(=O)(=O)c5ccc(NC[C@H]6CC[C@](C)(O)CC6)c([N+](=O)[O-])c5)c(Oc5cnc6[nH]cc(F)c6c5)c3)C4)[C@@H](c3ccccc3C(C)C)C2)cc1OC [Example 141b, 4-(6-((S)-4-(3,4-dimethoxybenzyl)-2-(2-isopropylphenyl)piperazin-1-yl)-2-azaspiro[3.3]heptan-2-yl)-2-((3-fluoro-1H-pyrrolo[2,3-b]pyridin-5-yl)oxy)-N-((4-((((1r,4r)-4-hydroxy-4-methylcyclohexyl)methyl)amino)-3-nitrophenyl)sulfonyl)benzamide]
IC50 [1]: 2.3 nM | Ratio of Bcl-2 G101V/WT [2]: 40 | IC50 [3]: 0.059 nM | IC50 [4]: 0.659 nM | IC50 [5]: 4.09 nM

C#Cc1ccc(CN2CCN(C3CC4(CCN(c5ccc(C(=O)NS(=O)(=O)c6ccc(NC[C@H]7CC[C@](C)(O)CC7)c([N+](=O)[O-])c6)c(Oc6cnc7[nH]ccc7c6)c5)CC4)C3)C(c3ccccc3C(C)C)C2)cc1 (stereo partly drawn) [Example 142, 2-((1H-pyrrolo[2,3-b]pyridin-5-yl)oxy)-4-(2-(4-(4-ethynylbenzyl)-2-(2-isopropylphenyl)piperazin-1-yl)-7-azaspiro[3.5]nonan-7-yl)-N-((4-((((1r,4r)-4-hydroxy-4-methylcyclohexyl)methyl)amino)-3-nitrophenyl)sulfonyl)benzamide]
IC50 [1]: 3 nM | Ratio of Bcl-2 G101V/WT [2]: 5.3 | IC50 [3]: 0.56 nM | IC50 [4]: 0.795 nM | IC50 [5]: 6.22 nM

COc1ccc(CN2CCN(C3CC4(CCN(c5ccc(C(=O)NS(=O)(=O)c6ccc(NC[C@H]7CC[C@](C)(O)CC7)c([N+](=O)[O-])c6)c(Oc6cnc7[nH]ccc7c6)c5)CC4)C3)C(c3ccccc3C(C)C)C2)cc1Br (stereo partly drawn) [Example 143, 2-((1H-pyrrolo[2,3-b]pyridin-5-yl)oxy)-4-(2-(4-(3-bromo-4-methoxybenzyl)-2-(2-isopropylphenyl)piperazin-1-yl)-7-azaspiro[3.5]nonan-7-yl)-N-((4-((((1r,4r)-4-hydroxy-4-methylcyclohexyl)methyl)amino)-3-nitrophenyl)sulfonyl)benzamide]
IC50 [1]: 2.6 nM | Ratio of Bcl-2 G101V/WT [2]: 5.5 | IC50 [3]: 0.48 nM | IC50 [4]: 0.674 nM | IC50 [5]: 5.15 nM

COc1cc(CN2CCN(C3CC4(CCN(c5ccc(C(=O)NS(=O)(=O)c6ccc(NC[C@H]7CC[C@](C)(O)CC7)c([N+](=O)[O-])c6)c(Oc6cnc7[nH]ccc7c6)c5)CC4)C3)C(c3ccccc3C(C)C)C2)cc(Cl)c1OC (stereo partly drawn) [Example 148, 2-((1H-pyrrolo[2,3-b]pyridin-5-yl)oxy)-4-(2-(4-(3-chloro-4,5-dimethoxybenzyl)-2-(2-isopropylphenyl)piperazin-1-yl)-7-azaspiro[3.5]nonan-7-yl)-N-((4-((((1r,4r)-4-hydroxy-4-methylcyclohexyl)methyl)amino)-3-nitrophenyl)sulfonyl)benzamide]
IC50 [1]: 2 nM | Ratio of Bcl-2 G101V/WT [2]: 3.6 | IC50 [3]: 0.56 nM | IC50 [4]: 0.46 nM | IC50 [5]: 2.81 nM

CC(C)c1ccccc1[C@@H]1CN(Cc2cccc3c2OCCO3)CCN1C1CC2(C1)CN(c1ccc(C(=O)NS(=O)(=O)c3ccc(NC[C@H]4CC[C@](C)(O)CC4)c([N+](=O)[O-])c3)c(Oc3cnc4[nH]ccc4c3)c1)C2 [Example 149a, 2-((1H-pyrrolo[2,3-b]pyridin-5-yl)oxy)-4-(6-((R)-4-((2,3-dihydrobenzo[b][1,4]dioxin-5-yl)methyl)-2-(2-isopropylphenyl)piperazin-1-yl)-2-azaspiro[3.3]heptan-2-yl)-N-((4-((((1r,4r)-4-hydroxy-4-methylcyclohexyl)methyl)amino)-3-nitrophenyl)sulfonyl)benzamide]
IC50 [1]: 0.27 nM | Ratio of Bcl-2 G101V/WT [2]: 2.6 | IC50 [3]: 0.11 nM | IC50 [4]: 0.17 nM | IC50 [5]: 0.67 nM

CC(C)c1ccccc1[C@H]1CN(Cc2cccc3c2OCCO3)CCN1C1CC2(C1)CN(c1ccc(C(=O)NS(=O)(=O)c3ccc(NC[C@H]4CC[C@](C)(O)CC4)c([N+](=O)[O-])c3)c(Oc3cnc4[nH]ccc4c3)c1)C2 [Example 149b, 2-((1H-pyrrolo[2,3-b]pyridin-5-yl)oxy)-4-(6-((S)-4-((2,3-dihydrobenzo[b][1,4]dioxin-5-yl)methyl)-2-(2-isopropylphenyl)piperazin-1-yl)-2-azaspiro[3.3]heptan-2-yl)-N-((4-((((1r,4r)-4-hydroxy-4-methylcyclohexyl)methyl)amino)-3-nitrophenyl)sulfonyl)benzamide]
IC50 [1]: 8.4 nM | Ratio of Bcl-2 G101V/WT [2]: 12 | IC50 [3]: 0.7 nM | IC50 [4]: 5.8 nM | IC50 [5]: 20.4 nM

C#Cc1cc(CN2CCN(C3CC4(CCN(c5ccc(C(=O)NS(=O)(=O)c6ccc(NC[C@H]7CC[C@](C)(O)CC7)c([N+](=O)[O-])c6)c(Oc6cnc7[nH]ccc7c6)c5)CC4)C3)C(c3ccccc3C(C)C)C2)ccc1OC (stereo partly drawn) [Example 151, 2-((1H-pyrrolo[2,3-b]pyridin-5-yl)oxy)-4-(2-(4-(3-ethynyl-4-methoxybenzyl)-2-(2-isopropylphenyl)piperazin-1-yl)-7-azaspiro[3.5]nonan-7-yl)-N-((4-((((1r,4r)-4-hydroxy-4-methylcyclohexyl)methyl)amino)-3-nitrophenyl)sulfonyl)benzamide]
IC50 [1]: 2.1 nM | Ratio of Bcl-2 G101V/WT [2]: 4.9 | IC50 [3]: 0.43 nM | IC50 [4]: 0.53 nM | IC50 [5]: 3.86 nM

COc1cc(CN2CCN(C3CC4(CCN(c5ccc(C(=O)NS(=O)(=O)c6ccc(NC[C@H]7CC[C@](C)(O)CC7)c([N+](=O)[O-])c6)c(Oc6cnc7[nH]ccc7c6)c5)CC4)C3)C(c3ccccc3C(C)C)C2)cc(F)c1OC (stereo partly drawn) [Example 152, 2-((1H-pyrrolo[2,3-b]pyridin-5-yl)oxy)-4-(2-(4-(3-fluoro-4,5-dimethoxybenzyl)-2-(2-isopropylphenyl)piperazin-1-yl)-7-azaspiro[3.5]nonan-7-yl)-N-((4-((((1r,4r)-4-hydroxy-4-methylcyclohexyl)methyl)amino)-3-nitrophenyl)sulfonyl)benzamide]
IC50 [1]: 0.89 nM | Ratio of Bcl-2 G101V/WT [2]: 3.5 | IC50 [3]: 0.25 nM | IC50 [4]: 0.35 nM | IC50 [5]: 1.31 nM

CCc1ccc(CN2CCN(C3CC4(CCN(c5ccc(C(=O)NS(=O)(=O)c6ccc(NC[C@H]7CC[C@](C)(O)CC7)c([N+](=O)[O-])c6)c(Oc6cnc7[nH]ccc7c6)c5)CC4)C3)C(c3ccccc3C(C)C)C2)cc1 (stereo partly drawn) [Example 153]
IC50 [1]: 2.7 nM | Ratio of Bcl-2 G101V/WT [2]: 4.4 | IC50 [3]: 0.6 nM | IC50 [4]: 0.75 nM | IC50 [5]: 6.48 nM

COc1cnc(CN2CCN(C3CC4(CCN(c5ccc(C(=O)NS(=O)(=O)c6ccc(NC[C@H]7CC[C@](C)(O)CC7)c([N+](=O)[O-])c6)c(Oc6cnc7[nH]ccc7c6)c5)CC4)C3)C(c3ccccc3C(C)C)C2)cn1 (stereo partly drawn) [Example 154, 2-((1H-pyrrolo[2,3-b]pyridin-5-yl)oxy)-N-((4-((((1r,4r)-4-hydroxy-4-methylcyclohexyl)methyl)amino)-3-nitrophenyl)sulfonyl)-4-(2-(2-(2-isopropylphenyl)-4-((5-methoxypyrazin-2-yl)methyl)piperazin-1-yl)-7-azaspiro[3.5]nonan-7-yl)benzamide]
IC50 [1]: 0.3 nM | Ratio of Bcl-2 G101V/WT [2]: 6 | IC50 [3]: 0.05 nM | IC50 [4]: 0.38 nM | IC50 [5]: 2.22 nM

COc1cc(CN2CCN(C3CC4(CCN(c5ccc(C(=O)NS(=O)(=O)c6ccc(NC[C@H]7CC[C@](C)(O)CC7)c([N+](=O)[O-])c6)c(Oc6cnc7[nH]ccc7c6)c5)CC4)C3)C(c3ccccc3C(C)C)C2)ccc1C1CC1 (stereo partly drawn) [Example 156, 2-((1H-pyrrolo[2,3-b]pyridin-5-yl)oxy)-4-(2-(4-(4-cyclopropyl-3-methoxybenzyl)-2-(2-isopropylphenyl)piperazin-1-yl)-7-azaspiro[3.5]nonan-7-yl)-N-((4-((((1r,4r)-4-hydroxy-4-methylcyclohexyl)methyl)amino)-3-nitrophenyl)sulfonyl)benzamide]
IC50 [1]: 3.6 nM | Ratio of Bcl-2 G101V/WT [2]: 4.9 | IC50 [3]: 0.73 nM | IC50 [4]: 0.375 nM | IC50 [5]: 1.42 nM

COc1ccc(CN2CCN(C3CC4(CCN(c5ccc(C(=O)NS(=O)(=O)c6ccc(NC[C@H]7CC[C@](C)(O)CC7)c([N+](=O)[O-])c6)c(Oc6cnc7[nH]cc(F)c7c6)c5)CC4)C3)C(c3ccccc3C(C)C)C2)cc1OC(F)F (stereo partly drawn) [Example 159, 4-(2-(4-(3-(difluoromethoxy)-4-methoxybenzyl)-2-(2-isopropylphenyl)piperazin-1-yl)-7-azaspiro[3.5]nonan-7-yl)-2-((3-fluoro-1H-pyrrolo[2,3-b]pyridin-5-yl)oxy)-N-((4-((((1r,4r)-4-hydroxy-4-methylcyclohexyl)methyl)amino)-3-nitrophenyl)sulfonyl) benzamide]
IC50 [1]: 0.4 nM | Ratio of Bcl-2 G101V/WT [2]: 3.4 | IC50 [3]: 0.12 nM | IC50 [4]: 0.386 nM | IC50 [5]: 1.71 nM
